# ChEMBL document CHEMBL6109037, “Understanding the mechanisms of antimicrobial resistance and potential therapeutic approaches against the Gram-negative pathogen Acinetobacter baumannii” (RSC Med Chem, 2024)
# What was measured:
# [1] = system: Escherichia coli; test: Antibacterial activity against Escherichia coli; assay type: functional
# [2] = system: Acinetobacter baumannii; test: Antibacterial activity against multidrug-resistant Acinetobacter baumannii ATCC 17978 assessed as reduction in bacterial growth incubated for 24 hrs by micro-broth dilution method; assay type: functional
# [3] = system: Acinetobacter baumannii; test: Antibacterial activity against Acinetobacter baumannii ATCC 17978 assessed as reduction in bacterial growth incubated for 24 hrs by micro-broth dilution method; assay type: functional
# [4] = system: Acinetobacter baumannii; test: Antibacterial activity against Acinetobacter baumannii ATCC 17978 assessed as bacterial eradication; assay type: functional
# [5] = system: Acinetobacter baumannii; test: Antibacterial activity against Acinetobacter baumannii; assay type: functional
# [6] = system: Acinetobacter baumannii; test: Antibacterial activity against Acinetobacter baumannii ATCC 17978 assessed as reduction in bacterial growth incubated for 24 hrs by broth dilution assay; assay type: functional
# [7] = target: DNA gyrase (Escherichia coli, UniProt P0AES4+P0AES6); test: Inhibition of Escherichia coli DNA gyrase; assay type: protein-complex assay
# [8] = system: Acinetobacter baumannii; test: Antibacterial activity against Acinetobacter baumannii ATCC 17978 assessed as reduction in microbial growth; assay type: functional
# [9] = system: Acinetobacter baumannii; test: Antibacterial activity against Acinetobacter baumannii assessed as zone of inhibition; assay type: functional
# [10] = system: Acinetobacter baumannii; test: Synergistic antibacterial activity against Acinetobacter baumannii assessed as inhibition of bacterial growth incubated for 18 to 24 hrs by Checkerboard assay relative to control; assay type: functional; design: scale not given: the % may be the effect or the level left; conditions: time 18-24 hrs
# [11] = system: Acinetobacter baumannii; test: Antibacterial activity against Acinetobacter baumannii AB-5075 assessed as reduction in bacterial growth incubated for 18 to 24 hrs by broth micro-dilution assay; assay type: functional, organism-based
# [12] = system: Staphylococcus aureus; test: Antibacterial activity against Staphylococcus aureus; assay type: functional
# [13] = system: Acinetobacter baumannii; test: Synergistic antibacterial activity against Acinetobacter baumannii clinical isolates assessed as inhibition of bacterial growth incubated for 18 to 24 hrs by Checkerboard assay relative to control; assay type: functional; design: scale not given: the % may be the effect or the level left; conditions: time 18-24 hrs
# [14] = system: Acinetobacter baumannii; test: Antibacterial activity against multidrug-resistant Acinetobacter baumannii assessed as inhibition of bacterial growth incubated for 24 hrs by broth dilution assay; assay type: functional
# [15] = system: Acinetobacter baumannii; test: Antibacterial activity against Acinetobacter baumannii ATCC 17978 assessed as reduction in microbial growth incubated for 24 hrs Mueller-Hintorn broth dilution method; assay type: functional, organism-based; conditions: ATCC 17978, 24 h
# [16] = system: Klebsiella pneumoniae; test: Antibacterial activity against Klebsiella pneumoniae; assay type: functional
# [17] = system: Acinetobacter baumannii; test: Antibacterial activity against Acinetobacter baumannii ATCC 17978 assessed as inhibition of bacterial growth incubated for 18 to 20 hrs by two fold serial dilution assay; assay type: functional; conditions: time 18-20 hrs
# [18] = system: Acinetobacter baumannii; test: Bactericidal activity against Acinetobacter baumannii; assay type: functional
# [19] = system: Acinetobacter baumannii; test: Antibacterial activity against Acinetobacter baumannii BAA-1605 assessed as reduction in microbial growth incubated for 24 hrs by broth micro-dilution method; assay type: functional
# [20] = system: Staphylococcus aureus; test: Antibacterial activity against Staphylococcus aureus assessed as reduction in microbial growth; assay type: functional
molecule,measurement,setting,value
Cc1c(CN(C)C(=O)/C=C/c2cnc3c(c2)CCC(=O)N3)oc2ccccc12 [AFN-1252],MIC,[1],> 32 µg/mL
CC(CN1c2ccccc2Sc2ccccc21)N(C)C (configuration not stated) [PROMETHAZINE],MIC,[2],100 µg/mL
same,MIC,[3],100 µg/mL
same,MBEC,[4],0.3 g/L
C[C@@H](O)[C@H]1C(=O)N2C(C(=O)O)=C(S[C@@H]3CN[C@H](C(=O)N(C)C)C3)[C@H](C)[C@H]12 [MEROPENEM],MIC,[5],> 8 µg/mL
COCCCNc1cc2nc(NC(=O)c3[nH]c(C)c(Cl)c3Cl)sc2cc1C(=O)O,MIC,[5],4 µg/mL
O=C(O)c1ccc(-n2cc(/C=N/Nc3ccc(F)cc3)c(-c3ccccc3)n2)cc1,MIC,[5],8 µg/mL
Cc1c(N2C[C@H](C)N[C@@H](C)C2)c(F)cn2c(=O)c(C(=O)O)cc(C3CC3)c12,MIC,[6],0.31 µM
CN1CCN(CCCN2c3ccccc3Sc3ccc(C(F)(F)F)cc32)CC1 [TRIFLUOPERAZINE],MIC,[2],100 µg/mL
same,MIC,[3],100 µg/mL
same,MBEC,[4],0.3 g/L
Cc1[nH]c(C(=O)Nc2nc3cc(NCc4ccccc4)c(C(=O)O)cc3s2)c(Cl)c1Cl,MIC,[5],8 µg/mL
same,IC50,[7],< 71 nM
CNc1nc(NCc2ccccc2)nc2ccc(C)cc12,MIC,[8],1 µM
O=C(O)c1ccc(-c2nn(-c3ccc(C(=O)O)cc3)cc2/C=N/Nc2cccc(F)c2)cc1,MIC,[5],1.56 µg/mL
O=C(O)c1ccc(-n2cc(/C=N/Nc3ccccc3)c(-c3ccccc3)n2)cc1,inhibition zone (IZ),[9],28 mm
CC1(C)[C@H](C(=O)O)N2C(=O)C[C@H]2S1(=O)=O [SULBACTAM],Activity,[10],~70%
CN(C)[C@@H]1C(O)=C(C(N)=O)C(=O)[C@@]2(O)C(O)=C3C(=O)c4c(O)cccc4[C@@](C)(O)[C@H]3C[C@@H]12 [TETRACYCLINE],IC50,[11],40 nM
CNCC1=CCCN(c2c(F)cn3c(=O)c(C(=O)O)cc(C4CC4)c3c2C)C1,MIC,[6],0.16 µM
Cc1cc(=O)n(C)c2c3c4c(cc12)c(C)cc(=O)n4C(CN)CO3 (configuration not stated),MIC,[5],2 µg/mL
same,MIC,[12],0.03 µg/mL
same,MIC,[1],0.5 µg/mL
CC[C@H]1OC(=O)[C@H](C)[C@@H](O[C@H]2C[C@@](C)(OC)[C@@H](O)[C@H](C)O2)[C@H](C)[C@@H](O[C@@H]2O[C@H](C)C[C@H](N(C)C)[C@H]2O)[C@](C)(O)C[C@@H](C)CN(C)[C@H](C)[C@@H](O)[C@]1(C)O [AZITHROMYCIN],IC50,[11],1100 nM
O=c1[nH]cc(F)c(=O)[nH]1 [FLUOROURACIL],IC50,[11],1800 nM
CN(C)c1cc(NC(=O)CNC(C)(C)C)c(O)c2c1C[C@H]1C[C@H]3[C@H](N(C)C)C(O)=C(C(N)=O)C(=O)[C@@]3(O)C(O)=C1C2=O [TIGECYCLINE],MIC,[5],0.5 µg/mL
same,IC50,[11],150 nM
NCC[C@H](O)C(=O)N[C@@H]1C[C@H](N)[C@@H](O[C@H]2O[C@H](CN)[C@@H](O)[C@H](O)[C@H]2O)[C@H](O)[C@H]1O[C@H]1O[C@H](CO)[C@@H](O)[C@H](N)[C@H]1O [AMIKACIN],Activity,[13],46.2%
Cc1cc(-n2sc(Cl)c(C)c2=O)ccc1Cl,MIC,[14],2 µg/mL
CSc1ccc2c(c1)N(CCC1CCCCN1C)c1ccccc1S2 (configuration not stated) [THIORIDAZINE],MIC,[2],100 µg/mL
same,MIC,[3],100 µg/mL
same,MBEC,[4],0.3 g/L
NNC(=O)CSc1ccc([N+](=O)[O-])cc1Cl,IC50,[15],11700 nM
Cc1cc(=O)n(C)c2c3c4c(cc12)c(C)cc(=O)n4CCO3,MIC,[5],> 32 µg/mL
same,MIC,[12],0.06 µg/mL
same,MIC,[1],> 32 µg/mL
CN(C)CCCN1c2ccccc2Sc2ccc(Cl)cc21 [CHLORPROMAZINE],MIC,[2],100 µg/mL
same,MIC,[3],100 µg/mL
same,MBEC,[4],0.3 g/L
Cc1c(CN(C)C(=O)/C=C/c2cnc3c(c2)CC(N)C(=O)N3)oc2ccccc12 (configuration not stated),MIC,[5],4 µg/mL
same,MIC,[1],4 µg/mL
same,MIC,[16],4 µg/mL
Cc1c(Cl)sn(-c2ccc(Cl)cc2)c1=O,MIC,[14],0.25 µg/mL
O=c1[nH]c(=O)n(C2OC(CO)c3ccccc32)cc1F (configuration not stated),IC50,[15],< 2000 nM
O=[N+]([O-])c1ccc(O)c(/C=N/Nc2ccccn2)c1,MIC,[5],25 µg/mL
Brc1ccc2[nH]c(-c3ccncc3)cc2c1,MIC,[17],< 2 µg/mL
O=C(O)c1ccc(-c2nn(-c3ccc(C(=O)O)cc3)cc2/C=N/Nc2ccc(Cl)cc2)cc1,MIC,[5],0.79 µg/mL
Oc1cccc(/C=N/Nc2ccccn2)c1O,MIC,[5],25 µg/mL
Cc1c(N2C[C@@H](N)[C@@H](C)C2)c(F)cn2c(=O)c(C(=O)O)cc(C3CC3)c12,MIC,[17],0.09 µg/mL
O=C(O)c1ccc(-n2cc(/C=N/Nc3ccc(Cl)cc3)c(-c3ccccc3)n2)cc1,MIC,[5],4 µg/mL
H-RWKIFKKIPKFLHSAKKW-NH2,MIC,[18],4 µg/mL
CO[C@@]12[C@H](COC(N)=O)C3=C(C(=O)C(C)=C(N)C3=O)N1C[C@@H]1N[C@@H]12 [MITOMYCIN],MIC,[19],≤ 8 µg/mL
Cn1cnc2c3c(Cl)c4ccccc4nc3ccc21,MBC,[20],2 µg/mL
THIMEROSAL,MIC,[14],1 µg/mL
Cc1c(N2C[C@H](N)C3(CC3)C2)c(F)cn2c(=O)c(C(=O)O)cc(C3CC3)c12,MIC,[17],0.19 µg/mL
C[C@@H](O)[C@H]1C(=O)N2C(C(=O)O)=C(SCCNC=N)C[C@H]12 [IMIPENEM ANHYDROUS],MIC,[5],> 8 µg/mL
O=C1NC2(CCC3(CC2)OCCO3)NN1c1ccc(Cl)cc1,IC50,[15],10800 nM
CC(C)(C)n1cc(C(=O)O)c(=O)c2cc(F)c(Cl)nc21,IC50,[15],< 2000 nM
